How the values were obtained:
Type in all cases: in vivo
[1] = tested on: rice leafroller (Cnaphalocrocis medinalis); experiment: Insecticidal effect on rice leafroller (Test Example 3); conditions: 500 ppm, rice lamina dip, third-instar larvae of rice leafroller, 4 days after inoculation, 25° C., humidity 70%
In short: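 Insecticidal effect is judged by a predefined criterion from dead/alive counts four days after infesting air-dried lamina with third-instar larvae, kept on moistened filter paper at 25° C, 70% humidity.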

[2] = tested on: diamondback moth (Plutella xylostella); experiment: Insecticidal effect on diamondback moth (Test Example 1); conditions: diamondback moth; judged by the criterion of Test Example 1
In short: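 Oviposition by adults on Chinese cabbage seedling; immersion; air-dry; 25° C room. Count of hatched larvae at day 6 post-immersion → mortality → effect graded by criterion. Triplicate, 10 insects/group.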

[3] = tested on: common cutworm (Spodoptera Litura); experiment: Insecticidal effect on common cutworm (Test Example 2); conditions: 500 ppm, cabbage leaf dip, second-instar larvae of common cutworm, 8 days after inoculation, 25° C.
In short: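 2nd-instar larvae on air-dried treatment, closed dish, 25° C; dead/alive counted at day 8. Mortality calculated, graded by criterion. 3 × 10 insects.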

How did the “Insecticidal effect (Test Example 3), judged from mortality” value [1] turn out when CC(C)NC(=O)c1c(Cl)cccc1C(=O)Nc1ccc2c(c1Cl)OC(F)(F)C(F)(F)O2 [compound 1642] was run?
Its value is “A (100)”.

And the “Insecticidal effect (Test Example 1), judged from mortality” value [2]?
Its value is “A (100)”.

What about the “Insecticidal effect (Test Example 2), judged from mortality” value [3] of the same compound?
The value was “A (100)”.

For CC(C)(C)NC(=O)c1c(I)cccc1C(=O)Nc1ccc2c(c1Cl)OC(F)(F)C(F)(F)O2 [compound 1644], which “Insecticidal effect (Test Example 3), judged from mortality” value [1] is on record?
The value was “A (100)”.

What about the “Insecticidal effect (Test Example 1), judged from mortality” value [2] of the same compound?
The value was “A (100)”.

And the “Insecticidal effect (Test Example 2), judged from mortality” value [3]?
The value was “A (100)”.

CC(C)(C)NC(=O)c1c(I)cccc1C(=O)Nc1cc2c(cc1Cl)OC(F)(F)C(F)(F)O2 [compound 1645] was tested. Which “Insecticidal effect (Test Example 3), judged from mortality” value [1] did it give?
The value was “A (100)”.

What about the “Insecticidal effect (Test Example 1), judged from mortality” value [2] of the same compound?
The value was “A (100)”.

And the “Insecticidal effect (Test Example 2), judged from mortality” value [3]?
The value was “A (100)”.

What does the source list for Cc1cc(C(F)(F)C(F)(F)F)ccc1NC(=O)c1cccc(I)c1C(=O)NC(C)(C)CCl [compound 1646]?
Insecticidal effect (Test Example 3), judged from mortality [1]: A (100); Insecticidal effect (Test Example 1), judged from mortality [2]: A (100); Insecticidal effect (Test Example 2), judged from mortality [3]: A (100)

How did the “Insecticidal effect (Test Example 3), judged from mortality” value [1] turn out when Cc1cc(C(F)(F)C(F)(F)F)ccc1NC(=O)c1cccc(I)c1C(=O)NC(C)(C)CBr [compound 1647] was run?
The value was “A (100)”.

And the “Insecticidal effect (Test Example 1), judged from mortality” value [2]?
Its value is “A (100)”.

What about the “Insecticidal effect (Test Example 2), judged from mortality” value [3] of the same compound?
Its value is “A (100)”.

Cc1cc(C(F)(F)C(F)(F)F)ccc1NC(=O)c1cccc(Cl)c1C(=O)NC(C)(C)C#Cc1ccc(Br)cn1 [compound 1649] was tested. Which “Insecticidal effect (Test Example 3), judged from mortality” value [1] did it give?
The value was “A (100)”.

And the “Insecticidal effect (Test Example 1), judged from mortality” value [2]?
The value was “A (100)”.

What about the “Insecticidal effect (Test Example 2), judged from mortality” value [3] of the same compound?
The value was “A (100)”.

What does the source list for Cc1cc(C(F)(F)C(F)(F)F)ccc1NC(=O)c1cccc(Cl)c1C(=O)NC(C)(C)C#Cc1ccc(F)cc1F [compound 1650]?
Insecticidal effect (Test Example 3), judged from mortality [1]: A (100); Insecticidal effect (Test Example 1), judged from mortality [2]: A (100); Insecticidal effect (Test Example 2), judged from mortality [3]: A (100)

For Cc1cc(C(F)(F)C(F)(F)F)ccc1NC(=O)c1cccc(Cl)c1C(=O)NC(C)CF (stereo not drawn) [compound 1651], which “Insecticidal effect (Test Example 3), judged from mortality” value [1] is on record?
The value was “A (100)”.

What about the “Insecticidal effect (Test Example 1), judged from mortality” value [2] of the same compound?
The value was “A (100)”.

What about the “Insecticidal effect (Test Example 2), judged from mortality” value [3] of the same compound?
The value was “A (100)”.

Which “Insecticidal effect (Test Example 3), judged from mortality” value [1] does the source give for Cc1cc(C(F)(F)C(F)(F)F)ccc1NC(=O)c1cccc(Cl)c1C(=O)NC(C)CBr (stereo not drawn) [compound 1652] here?
Its value is “A (100)”.

And the “Insecticidal effect (Test Example 1), judged from mortality” value [2]?
The value was “A (100)”.

What about the “Insecticidal effect (Test Example 2), judged from mortality” value [3] of the same compound?
The value was “A (100)”.

With Cc1cc(C(F)(F)C(F)(F)F)c(Cl)cc1NC(=O)c1cccc(I)c1C(=O)NC(C)C [compound 1653] as the compound, how does the “Insecticidal effect (Test Example 3), judged from mortality” value [1] read?
Its value is “A (100)”.

And the “Insecticidal effect (Test Example 1), judged from mortality” value [2]?
The value was “A (100)”.

What about the “Insecticidal effect (Test Example 2), judged from mortality” value [3] of the same compound?
Its value is “A (100)”.

Cc1cc(C(F)(F)C(F)(F)F)c(Cl)cc1NC(=O)c1cccc(I)c1C(=O)NC(C)(C)C [compound 1654] was tested. Which “Insecticidal effect (Test Example 3), judged from mortality” value [1] did it give?
Its value is “A (100)”.

What about the “Insecticidal effect (Test Example 1), judged from mortality” value [2] of the same compound?
The value was “A (100)”.

What about the “Insecticidal effect (Test Example 2), judged from mortality” value [3] of the same compound?
Its value is “A (100)”.

With CCc1cc(C(F)(C(F)(F)F)C(F)(F)F)ccc1NC(=O)c1cccc(I)c1C(=O)NC(C)C [compound 1714] as the compound, how does the “Insecticidal effect (Test Example 3), judged from mortality” value [1] read?
Its value is “A (100)”.

And the “Insecticidal effect (Test Example 1), judged from mortality” value [2]?
The value was “A (100)”.

What about the “Insecticidal effect (Test Example 2), judged from mortality” value [3] of the same compound?
The value was “A (100)”.

What does the source list for COc1cc(C(F)(C(F)(F)F)C(F)(F)F)ccc1NC(=O)c1cccc(I)c1C(=O)NC(C)C [compound 1715]?
Insecticidal effect (Test Example 3), judged from mortality [1]: A (100); Insecticidal effect (Test Example 1), judged from mortality [2]: A (100); Insecticidal effect (Test Example 2), judged from mortality [3]: A (100)

Which results are given for Cc1cc(C(F)(C(F)(F)F)C(F)(F)F)cc(C)c1NC(=O)c1cccc(I)c1C(=O)NC(C)C [compound 1716]?
Insecticidal effect (Test Example 3), judged from mortality [1]: A (100); Insecticidal effect (Test Example 1), judged from mortality [2]: A (100); Insecticidal effect (Test Example 2), judged from mortality [3]: A (100)

With Cc1cc(C(F)(F)C(F)(F)F)cc(C)c1NC(=O)c1cccc(I)c1C(=O)NC(C)C [compound 1717] as the compound, how does the “Insecticidal effect (Test Example 3), judged from mortality” value [1] read?
Its value is “A (100)”.

And the “Insecticidal effect (Test Example 1), judged from mortality” value [2]?
Its value is “A (100)”.

What about the “Insecticidal effect (Test Example 2), judged from mortality” value [3] of the same compound?
The value was “A (100)”.

CC(C)NC(=O)c1c(I)cccc1C(=O)Nc1ccc(C(F)(C(F)(F)F)C(F)(F)F)cc1Cl [compound 1722] was tested. Which “Insecticidal effect (Test Example 3), judged from mortality” value [1] did it give?
The value was “A (100)”.

What about the “Insecticidal effect (Test Example 1), judged from mortality” value [2] of the same compound?
The value was “A (100)”.

What about the “Insecticidal effect (Test Example 2), judged from mortality” value [3] of the same compound?
The value was “A (100)”.

What does the source list for CC(C)(C)NC(=O)c1c(I)cccc1C(=O)Nc1ccc(C(F)(C(F)(F)F)C(F)(F)F)cc1Cl [compound 1723]?
Insecticidal effect (Test Example 3), judged from mortality [1]: A (100); Insecticidal effect (Test Example 1), judged from mortality [2]: A (100); Insecticidal effect (Test Example 2), judged from mortality [3]: A (100)

CC(C)NC(=O)c1c(I)cccc1C(=O)Nc1ccc2c(c1Cl)OC(F)C(F)(F)O2 (stereo not drawn) [compound 1733] was tested. Which “Insecticidal effect (Test Example 3), judged from mortality” value [1] did it give?
Its value is “A (100)”.

And the “Insecticidal effect (Test Example 1), judged from mortality” value [2]?
Its value is “A (100)”.

What about the “Insecticidal effect (Test Example 2), judged from mortality” value [3] of the same compound?
The value was “A (100)”.

CON=C(C)c1ccc(NC(=O)c2cccc(I)c2C(=O)NC(C)C)cc1 [compound 1737] was tested. Which “Insecticidal effect (Test Example 3), judged from mortality” value [1] did it give?
The value was “A (100)”.

What about the “Insecticidal effect (Test Example 1), judged from mortality” value [2] of the same compound?
Its value is “A (100)”.

And the “Insecticidal effect (Test Example 2), judged from mortality” value [3]?
The value was “C (89-80)”.

Which results are given for CC(C)(C)NC(=O)c1c(I)cccc1C(=O)Nc1ccc(Cl)c2c1OC(F)(F)O2 [compound 1747]?
Insecticidal effect (Test Example 3), judged from mortality [1]: A (100); Insecticidal effect (Test Example 1), judged from mortality [2]: A (100); Insecticidal effect (Test Example 2), judged from mortality [3]: C (89-80)

Which “Insecticidal effect (Test Example 3), judged from mortality” value [1] does the source give for CC(C)NC(=O)c1c(I)cccc1C(=O)Nc1ccc2nc(C(C)C)sc2c1 [compound 1764] here?
The value was “A (100)”.

And the “Insecticidal effect (Test Example 1), judged from mortality” value [2]?
Its value is “A (100)”.

What about the “Insecticidal effect (Test Example 2), judged from mortality” value [3] of the same compound?
Its value is “A (100)”.

What does the source list for CC(C)NC(=O)c1c(I)cccc1C(=O)Nc1ccc(-c2csc(C(F)(F)F)n2)cc1 [compound 1765]?
Insecticidal effect (Test Example 3), judged from mortality [1]: A (100); Insecticidal effect (Test Example 1), judged from mortality [2]: A (100); Insecticidal effect (Test Example 2), judged from mortality [3]: A (100)

Which “Insecticidal effect (Test Example 3), judged from mortality” value [1] does the source give for CSc1cc(NC(=O)c2cccc(I)c2C(=O)NC(C)C)ccc1C(F)(C(F)(F)F)C(F)(F)F [compound 1766] here?
Its value is “A (100)”.

What about the “Insecticidal effect (Test Example 1), judged from mortality” value [2] of the same compound?
The value was “A (100)”.

What about the “Insecticidal effect (Test Example 2), judged from mortality” value [3] of the same compound?
The value was “A (100)”.

With Cc1cc(C(F)(C(F)(F)F)C(F)(F)F)ccc1NC(=O)c1cccc(I)c1C(=O)NC(C)c1ccccn1 (stereo not drawn) [compound 1773] as the compound, how does the “Insecticidal effect (Test Example 3), judged from mortality” value [1] read?
The value was “A (100)”.

What about the “Insecticidal effect (Test Example 1), judged from mortality” value [2] of the same compound?
Its value is “A (100)”.

And the “Insecticidal effect (Test Example 2), judged from mortality” value [3]?
The value was “A (100)”.

For Cc1cc(C(F)(F)C(F)(F)F)ccc1NC(=O)c1cccc(I)c1C(=O)NC(C)c1ccccn1 (stereo not drawn) [compound 1777], which “Insecticidal effect (Test Example 3), judged from mortality” value [1] is on record?
Its value is “A (100)”.

And the “Insecticidal effect (Test Example 1), judged from mortality” value [2]?
The value was “A (100)”.

And the “Insecticidal effect (Test Example 2), judged from mortality” value [3]?
Its value is “A (100)”.

Which “Insecticidal effect (Test Example 3), judged from mortality” value [1] does the source give for Cc1cc(C(F)(C(F)(F)F)C(F)(F)F)ccc1NC(=O)c1cccc(I)c1C(=O)NC(C)c1ccco1 (stereo not drawn) [compound 1799] here?
Its value is “A (100)”.

And the “Insecticidal effect (Test Example 1), judged from mortality” value [2]?
The value was “A (100)”.

What about the “Insecticidal effect (Test Example 2), judged from mortality” value [3] of the same compound?
The value was “A (100)”.

Which results are given for Cc1cc(C(F)(C(F)(F)F)C(F)(F)F)ccc1NC(=O)c1cccc(I)c1C(=O)NC(C)c1cccs1 (stereo not drawn) [compound 1800]?
Insecticidal effect (Test Example 3), judged from mortality [1]: A (100); Insecticidal effect (Test Example 1), judged from mortality [2]: A (100); Insecticidal effect (Test Example 2), judged from mortality [3]: A (100)

For Cc1cc(C(F)(F)C(F)(F)F)ccc1NC(=O)c1cccc(C(F)(F)F)c1C(=O)NC(C)C [compound 1801], which “Insecticidal effect (Test Example 3), judged from mortality” value [1] is on record?
The value was “A (100)”.

And the “Insecticidal effect (Test Example 1), judged from mortality” value [2]?
Its value is “A (100)”.

And the “Insecticidal effect (Test Example 2), judged from mortality” value [3]?
The value was “A (100)”.

For Cc1cc(C(F)(F)C(F)(F)F)ccc1NC(=O)c1cccc([S+]([O-])C(F)(F)F)c1C(=O)NC(C)C (stereo not drawn) [compound 1803], which “Insecticidal effect (Test Example 3), judged from mortality” value [1] is on record?
Its value is “A (100)”.

What about the “Insecticidal effect (Test Example 1), judged from mortality” value [2] of the same compound?
Its value is “A (100)”.

What about the “Insecticidal effect (Test Example 2), judged from mortality” value [3] of the same compound?
The value was “A (100)”.
